Measured values: patent publication US12336991B2, “Factor XIIA inhibitors” (UNIVERSITY OF LEEDS, priority 2018, dated 2025)

Legend:
Type in all cases: biochemical
thrombin = molecular target: T1, thrombin (Homo sapiens, UniProt P00734); experiment: Determination of selectivity: thrombin inhibition, chromogenic substrate GPR assay; conditions: fold selectivity for FXIIa over thrombin
T1 construct: FXa (5 nM) and thrombin (5 nM)
Summary of the method: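 Thrombin (5 nM) preincubated with compound 10 min at 37 °C in 50 mM Tris, 137 mM NaCl, pH 7.4, 5% DMSO, then GPR substrate ([…]) added. Absorbance at 405 nm read kinetically for 3 h; IC50 from initial rates, converted to Ki via Ki=IC50/(1+[S]/Km).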

FXa = FXa (Homo sapiens, UniProt P00742); experiment: Determination of selectivity: FXa inhibition, chromogenic substrate S2765 assay; conditions: fold selectivity for FXIIa over FXa
Chain of FXa (P00742 235-488 limits assumed): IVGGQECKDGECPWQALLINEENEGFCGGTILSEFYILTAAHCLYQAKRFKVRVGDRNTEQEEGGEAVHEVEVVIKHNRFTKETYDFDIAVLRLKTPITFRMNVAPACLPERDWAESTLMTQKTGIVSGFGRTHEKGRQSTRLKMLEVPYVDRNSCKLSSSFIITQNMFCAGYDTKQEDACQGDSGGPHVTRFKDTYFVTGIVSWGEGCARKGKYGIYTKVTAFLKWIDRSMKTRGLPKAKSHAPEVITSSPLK
Chain of FXa (P00742 41-179 partner limits assumed): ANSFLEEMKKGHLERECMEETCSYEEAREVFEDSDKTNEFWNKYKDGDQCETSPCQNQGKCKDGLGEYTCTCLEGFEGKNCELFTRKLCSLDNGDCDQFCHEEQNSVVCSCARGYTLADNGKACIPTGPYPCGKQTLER
Summary of the method: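 Human FXa (5 nM) preincubated with compound (top 500 μM, 5% DMSO) 10 min at 37 °C in 50 mM Tris, 137 mM NaCl pH 7.4, then S2765 ([…]) added; A405 kinetics over 3 h at 37 °C. IC50 from initial rates, converted to Ki via Cheng-Prusoff.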

FXIIa = molecular target: T2, FXIIa (Homo sapiens, UniProt P00748); experiment: Determination of Factor XIIa inhibition, chromogenic substrate S-2302 assay; conditions: human FXIIa alpha
T2 sequence (P00748 373-615 limits assumed): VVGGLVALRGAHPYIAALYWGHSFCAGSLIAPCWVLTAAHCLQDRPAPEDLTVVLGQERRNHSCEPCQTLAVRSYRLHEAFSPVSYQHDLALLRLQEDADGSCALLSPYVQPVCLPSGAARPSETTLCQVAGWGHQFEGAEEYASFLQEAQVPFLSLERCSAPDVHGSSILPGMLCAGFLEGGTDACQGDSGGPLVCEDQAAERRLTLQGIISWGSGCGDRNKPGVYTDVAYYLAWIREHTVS
T2 sequence (P00748 20-372 partner limits assumed): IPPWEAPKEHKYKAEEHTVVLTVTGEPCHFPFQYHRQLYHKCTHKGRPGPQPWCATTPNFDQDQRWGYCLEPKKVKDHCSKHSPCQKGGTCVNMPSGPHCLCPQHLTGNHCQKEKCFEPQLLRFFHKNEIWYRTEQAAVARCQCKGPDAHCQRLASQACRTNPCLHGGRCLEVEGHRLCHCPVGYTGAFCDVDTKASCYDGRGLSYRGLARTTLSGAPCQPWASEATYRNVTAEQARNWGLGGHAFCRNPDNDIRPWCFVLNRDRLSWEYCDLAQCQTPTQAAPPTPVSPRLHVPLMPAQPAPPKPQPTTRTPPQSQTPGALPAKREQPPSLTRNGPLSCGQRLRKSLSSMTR
Summary of the method: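 FXIIa (10 nM) preincubated with compound 10 min at 37° C. in 50 mM Tris, 137 mM NaCl pH 7.4, 5% DMSO, top concentration 500 μM, then S-2302 added ([…]). Absorbance at 405 nm read kinetically for 3 h; IC50 from initial rates, converted to Ki by Cheng-Prusoff.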

Row | Thrombin (human)/FXIIa alpha (human) (thrombin) | FXa (human)/FXIIa alpha (human) (FXa) | Ki (FXIIa) [nM] | Compound
1 | ++ (fold selectivity value of 10 to 100) | ∘∘ | > 2000 | NCc1ccc(CNC(=O)[C@@H]2C[C@H](C3CCCCC3)CN2C(=O)[C@H](N)CCc2ccccc2)cc1 [Example M05076, (2S,4R)-1-((R)-2-Amino-4-phenyl-butyryl)-4-cyclohexyl-pyrrolidine-2-carboxylic acid 4-aminomethyl-benzylamide]
2 | ++ (fold selectivity value of 10 to 100) | ∘ | > 2000 | Cn1nnc2cc(CNC(=O)[C@@H]3C[C@@H](Cc4cccc(F)c4)CN3C(=O)[C@H]3C[C@@H](c4ccccc4)CN3)ccc21 [Example M05327]
3 | ++ (fold selectivity value of 10 to 100) | ∘∘∘ | 200 to 2000 | COc1ccc(C[C@@H]2C[C@@H](C(=O)NCc3ccc4c(c3)nnn4C)N(C(=O)[C@H]3CC(c4ccccc4OC)CN3)C2)cc1 (stereo partly drawn) [Example M05378]
4 | ++ (fold selectivity value of 10 to 100) | ∘∘ | > 2000 | Cn1nnc2cc(CNC(=O)[C@@H]3CC(NCC4CCCCC4)CN3C(=O)[C@H](N)CCc3ccccc3)ccc21 (stereo partly drawn) [Example M05204]
5 | ++ (fold selectivity value of 10 to 100) | ∘∘ | > 2000 | Cn1nnc2cc(CNC(=O)[C@@H]3C[C@H](Nc4cnccn4)CN3C(=O)[C@H](N)CCC(=O)N3CCCC3)ccc21 [Example M05243]
6 | + (fold selectivity values less than 10) | ∘∘ | > 2000 | NCc1ncc(CNC(=O)[C@@H]2CCCN2C(=O)[C@H](N)CCc2ccccc2)s1 [Example M05099]
7 | ++ (fold selectivity value of 10 to 100) | ∘∘ | 200 to 2000 | Cc1ccccc1C[C@@H]1C[C@@H](C(=O)NCc2ccc3c(c2)nnn3C)N(C(=O)[C@H]2C[C@@H](c3ccccc3)CN2)C1 [Example M05360]
8 | ++ (fold selectivity value of 10 to 100) | ∘∘ | > 2000 | Cn1nnc2cc(CNC(=O)[C@@H]3C[C@H](C(F)(F)F)CN3C(=O)[C@H](N)CCc3ccccc3)ccc21 [Example M05102]
9 | ++ (fold selectivity value of 10 to 100) | ∘∘∘ | < 200 | Cn1nc(Cl)c2cc(CNC(=O)[C@@H]3C[C@@H](Cc4ccncc4)CN3C(=O)[C@H](N)CCC(=O)N3CCCC3)ccc21 [Example M05241]
10 | ++ (fold selectivity value of 10 to 100) | ∘∘ | 200 to 2000 | Cn1nnc2cc(CNC(=O)[C@@H]3C[C@@H](Cc4cccc(Br)c4)CN3C(=O)[C@H]3C[C@@H](c4ccccc4)CN3)ccc21 [Example M05366]
11 | ++ (fold selectivity value of 10 to 100) | ∘∘ | > 2000 | CNC(=O)N[C@H]1C[C@@H](C(=O)NCc2ccc3c(c2)nnn3C)N(C(=O)[C@H](N)CCc2ccccc2)C1 [Example M05208]
12 | ++ (fold selectivity value of 10 to 100) | ∘∘ | > 2000 | Cn1nnc2cc(CNC(=O)[C@@H]3C[C@@H](Cc4ccccc4F)CN3C(=O)[C@H]3C[C@@H](c4ccccc4)CN3)ccc21 [Example M05332]
13 | ++ (fold selectivity value of 10 to 100) | ∘∘ | > 2000 | COc1ccc2c(c1)CCNC2C(=O)N1C[C@H](Cc2ccncc2)C[C@H]1C(=O)NCc1ccc2c(c1)nnn2C (stereo partly drawn) [Example M05463]
14 | ++ (fold selectivity value of 10 to 100) | ∘∘∘ | < 200 | COc1ccc(C[C@@H]2C[C@@H](C(=O)NCc3cc4ccncc4[nH]3)N(C(=O)[C@H]3C[C@@H](c4ccccc4)CN3)C2)cc1 [Example M00953]
15 | + (fold selectivity values less than 10) | ∘∘ | > 2000 | Cc1cccc(CC[C@@H](N)C(=O)N2CCC[C@H]2C(=O)NCc2ccc(CN)cc2)c1 [Example M00762]
16 | ++ (fold selectivity value of 10 to 100) | ∘∘ | > 2000 | Cn1nnc2cc(CNC(=O)[C@@H]3C[C@@](O)(c4ccc(F)c(F)c4)CN3C(=O)[C@H](N)CCc3ccccc3)ccc21 [Example M05128]
17 | ++ (fold selectivity value of 10 to 100) | ∘∘ | > 2000 | Cn1nnc2cc(CNC(=O)[C@@H]3C[C@H](c4ccccc4)CN3C(=O)[C@H](N)CCc3ccccc3)ccc21 [Example M05163]

Row | Compound | Thrombin (human)/FXIIa alpha (human) (thrombin) | FXa (human)/FXIIa alpha (human) (FXa) | Ki (FXIIa) [nM]
18 | Cn1nnc2cc(CNC(=O)[C@@H]3C[C@@H](Cc4ccncc4)CN3C(=O)[C@@H](CCC(=O)N3CCCC3)NS(=O)(=O)c3ccccc3)ccc21 [Example M05290] | +++ (fold selectivity values greater than 100) | ∘∘ | > 2000
19 | Cn1nnc2cc(CNC(=O)[C@@H]3CC(Cc4cccc(C#N)c4)CN3C(=O)[C@H](N)CCC(=O)N3CCCC3)ccc21 (stereo partly drawn) [Example M05319] | +++ (fold selectivity values greater than 100) | ∘∘∘ | 200 to 2000
20 | COc1ccc(C[C@@H]2C[C@@H](C(=O)NCc3ccc4c(c3)nnn4C)N(C(=O)[C@H]3CC(c4cccnc4C(F)(F)F)CN3)C2)cc1 (stereo partly drawn) [Example M05421] | +++ (fold selectivity values greater than 100) | ∘∘∘ | 200 to 2000
21 | Cn1nnc2cc(CNC(=O)[C@@H]3C[C@H](C(F)(F)F)CN3C(=O)[C@H](N)CCC(=O)N3CCCC3)ccc21 [Example M05139] | +++ (fold selectivity values greater than 100) | ∘∘∘ | > 2000
22 | COc1ccc(C[C@@H]2C[C@@H](C(=O)NCc3ccc4c(c3)nnn4C)N(C(=O)[C@H]3CC(c4cccnc4F)CN3)C2)cc1 (stereo partly drawn) [Example M05418] | +++ (fold selectivity values greater than 100) | ∘∘∘ | 200 to 2000
23 | COc1ccc(C[C@@H]2C[C@@H](C(=O)NCc3ccc4c(c3)nnn4C)N(C(=O)[C@H]3C[C@@H](c4ccccc4)CN3)C2)cc1F [Example M05352] | +++ (fold selectivity values greater than 100) | ∘∘∘ | 200 to 2000
24 | COc1ccc(C[C@@H]2C[C@@H](C(=O)NCc3ccc4c(c3)nnn4C)N(C(=O)[C@H](N)CCC(=O)N3CCCC3C(F)(F)F)C2)cc1 (stereo partly drawn) [Example M05392] | +++ (fold selectivity values greater than 100) | ∘∘∘ | < 200
25 | COc1ccc(C[C@@H]2C[C@@H](C(=O)NCc3ccc4c(c3)nnn4C)N(C(=O)[C@H](N)CCC(=O)N3CCCC3)C2)cc1 [Example M05272] | +++ (fold selectivity values greater than 100) | ∘∘∘ | < 200
26 | Cn1nnc2cc(CNC(=O)[C@@H]3C[C@@H](Cc4ccc(S(C)(=O)=O)cc4)CN3C(=O)[C@H](N)CCC(=O)N3CCCC3)ccc21 [Example M05384] | +++ (fold selectivity values greater than 100) | ∘∘∘ | 200 to 2000
27 | Cn1nnc2cc(CNC(=O)[C@@H]3C[C@@H](Cc4ccncc4)CN3C(=O)[C@H](N)CCC(=O)N3CCCC3)ccc21 [Example M05189] | +++ (fold selectivity values greater than 100) | ∘∘∘ | 200 to 2000
28 | Cn1nnc2cc(CNC(=O)[C@@H]3C[C@@H](Cc4cccc(Br)c4)CN3C(=O)[C@H](N)CCC(=O)N3CCCC3)ccc21 [Example M05317] | +++ (fold selectivity values greater than 100) | ∘∘∘ | < 200
29 | COc1cccc(CC2C[C@@H](C(=O)NCc3ccc4c(c3)nnn4C)N(C(=O)[C@H](N)CCC(=O)N3CCCC3)C2)c1 (stereo partly drawn) [Example M05300] | +++ (fold selectivity values greater than 100) | ∘∘∘ | 200 to 2000
